# Experimental data taken from US7485651B2, “Compounds with activity on muscarinic receptors” (Acadia Pharmaceuticals, Inc., priority 1998, dated 2009).
# Experiments:
# m1 receptor = target: T1, m1 receptor (Homo sapiens, UniProt P11229); experiment: R-SAT / NIH 3T3 cells transfected with m1 muscarinic receptor; format: cell-based; conditions: NIH3T3; m1; compound at 1.5 μM; maximum = response to 10 μM carbachol; read-out: Cellular response as a percentage of the maximum response of the cells
# T1 construct: expressed in transfected cells; host or cells: NIH 3T3 (ATCC CRL 1658)
# T1 sequence (P11229 1-460): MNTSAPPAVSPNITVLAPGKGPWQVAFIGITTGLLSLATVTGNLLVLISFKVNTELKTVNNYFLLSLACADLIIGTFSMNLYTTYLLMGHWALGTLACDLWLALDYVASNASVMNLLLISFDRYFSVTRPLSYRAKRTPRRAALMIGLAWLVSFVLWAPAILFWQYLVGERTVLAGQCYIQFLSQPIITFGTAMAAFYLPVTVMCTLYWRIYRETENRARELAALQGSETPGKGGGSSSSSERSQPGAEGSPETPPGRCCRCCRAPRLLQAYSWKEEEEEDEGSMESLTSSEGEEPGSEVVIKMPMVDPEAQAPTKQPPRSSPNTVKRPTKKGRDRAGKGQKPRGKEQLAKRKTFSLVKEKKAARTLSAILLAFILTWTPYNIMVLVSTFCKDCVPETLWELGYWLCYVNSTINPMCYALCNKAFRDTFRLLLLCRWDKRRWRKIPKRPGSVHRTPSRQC
# Experimental: Cell amplification is detected as increased levels of a marker also expressed by the cells.
# The cells were treated with trypsin-EDTA, spun down and plated at 2×10^6 per 15 cm dish in 20 m1 of DMEM containing 10% calf serum.
# (§1) On day one, the cells were transfected using the Superfect transfection reagent (available from Qiagen, Valencia, Calif.) in accordance with the manufacturer's instructions. Receptor DNA, β-gal DNA (pSI-β-galactosidase available from Promega, Madison, Wis.), chimeric Gq-i5 DNA for the m2 and m4 receptor subtype assays, and salmon sperm DNA (available from Sigma, St. Louis, […].) as filler to a total of 20 μg DNA was added per plate. Prior to addition to the plates, 60 μl Superfect was added to the DNA and mixed thoroughly by pipetting up and down several times. The mixture was incubated at room temperature for 10-15 minutes. The media were aspirated, and 12 ml fresh DMEM containing 10% calf serum and 50 units/m1 penicillin/streptomycin was added to the plates. The DNA-Superfect solution was mixed once more with a pipette and added to the plate which was swirled to distribute the DNA mixture evenly over the surface. The cells were incubated overnight at 37° C. and 5% CO2. After incubation, the media were aspirated and the plates were rinsed once with a 15 m1 volume of Hank's Buffered Saline. The plates were swirled to ensure thorough rinsing. 20 m1 fresh DMEM supplemented with 10% calf serum and 50 units/m1 penicillin/streptomycin was added to the plates. The cells were incubated for 24-48 hours until the plates were 100% confluent.
# (§2) Assay of NIH 3T3 cells transfected with muscarinic receptor subtypes (general procedure) DMEM containing 2% Cyto-SF3 was heated at 37° C. in a water bath under sterile conditions. Sterile working stock solutions of test compounds to be assayed were prepared by diluting the compounds in DMEM to 8× the final concentration for testing. The compound (carbachol) to be included in the assay as a positive control was also diluted in DMEM to 8× the final concentration. 50 μL of the DMEM containing 2% Cyto-SF3 was added to each well of 96-well microtiter plates under sterile conditions. Then, 16 of compound solutions were added to the top wells of the plates, and dilution of the solutions was performed by taking 16 μl of the compound solutions from the top wells and pipetting them into the next row of wells. This procedure was repeated with each subsequent row of wells, except that 50 μl medium alone was added to the baseline control wells (the wells that contain medium and cells, but not test compounds) and plate control wells (wells containing medium, but not test compounds and cells). The plates were then placed in an incubator at 37° C. to equilibrate temperature and pH.
# When the cell cultures had reached 100% confluence, the medium was aspirated and each plate was rinsed with 15 m1 Hank's Buffered Saline (HBS). The cells were left in the incubator for about 10-15 minutes until the HBS had turned slightly yellow. The HBS was then aspirated and 1 m1 trypsin was added to each plate and swirled so as to completely cover the plates. The edges of the plates were gently rapped several times to loosen the cells. After the cells had been dislodged from the surface, 8 m1 DMEM containing 10% calf serum and 50 units/m1 penicillin and 50 units/m1 streptomycin was added to inhibit the trypsin. The plates were rinsed with this medium, and the cells were pipetted into a tube. The cells were centrifuged at 1000 rpm for 5-10 min. in an IEC Centra CL2 centrifuge (produced by Sorvall). Afterwards, the medium was carefully aspirated so as not to dislodge the cells. The cell pellet was suspended in 1600 μl DMEM containing 10% calf serum and 50 units/m1 penicillin and 50 units/m1 streptomycin, after which 20 m1 DMEM supplemented with 2% Cyto-SF3 was added. 50 μl aliquots of this cell suspension was added to the wells of the 96-well microtiter plates prepared above (except for the plate control wells).
# m3 receptor = target: T2, m3 receptor (Homo sapiens, UniProt P20309); experiment: R-SAT / NIH 3T3 cells transfected with m3 muscarinic receptor; format: cell-based; conditions: NIH3T3; m3; compound at 1.5 μM; maximum = response to 10 μM carbachol; read-out: Cellular response as a percentage of the maximum response of the cells
# T2 construct: expressed in transfected cells; host or cells: NIH 3T3 (ATCC CRL 1658)
# T2 sequence (P20309 whole entry): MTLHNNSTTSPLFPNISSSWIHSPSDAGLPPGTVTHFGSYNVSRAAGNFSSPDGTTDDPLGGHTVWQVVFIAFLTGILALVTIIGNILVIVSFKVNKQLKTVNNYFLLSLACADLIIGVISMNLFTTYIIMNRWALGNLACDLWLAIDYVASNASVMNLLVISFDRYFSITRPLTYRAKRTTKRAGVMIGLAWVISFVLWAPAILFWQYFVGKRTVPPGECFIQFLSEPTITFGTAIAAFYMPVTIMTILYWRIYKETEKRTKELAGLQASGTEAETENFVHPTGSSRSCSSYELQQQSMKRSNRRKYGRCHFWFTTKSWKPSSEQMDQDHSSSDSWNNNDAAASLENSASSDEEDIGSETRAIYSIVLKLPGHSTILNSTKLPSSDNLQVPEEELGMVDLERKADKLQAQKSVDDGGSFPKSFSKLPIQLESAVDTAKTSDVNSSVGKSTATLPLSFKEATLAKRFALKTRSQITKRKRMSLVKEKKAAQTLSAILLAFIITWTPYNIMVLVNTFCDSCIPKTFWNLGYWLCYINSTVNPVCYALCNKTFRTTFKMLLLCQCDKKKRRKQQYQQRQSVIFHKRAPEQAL
# Description: (§3) A particularly convenient functional assay system is the receptor selection and amplification assay disclosed in U.S. Pat. No. 5,707,798 describing a method of screening for bioactive compounds by utilizing the ability of cells transfected with receptor DNA, e.g. coding for the different muscarinic subtypes, to amplify in the presence of a ligand of the receptor. Cell amplification is detected as increased levels of a marker also expressed by the cells.
# (§4) Transfection of cells with muscarinic receptor DNAs (general procedure) NIH 3T3 cells (available from the American Type Culture Collection as ATCC CRL 1658) were grown at 37° C. in a humidified atmosphere (5% CO2) incubator in Dulbecco's modified Eagle's medium (DMEM) supplemented with 4.5 g/l glucose, 4 mM glutamine, 50 units/m1 penicillin, 50 units/m1 streptomycin (available from Advanced Biotechnologies, Inc., Gaithersburg, Md.) and 10% calf serum (available from Sigma, St. Louis, […].). The cells were treated with trypsin-EDTA, spun down and plated at 2×10^6 per 15 cm dish in 20 m1 of DMEM containing 10% calf serum.
# (§5) The m1-m5 muscarinic receptor subtypes were cloned substantially as described by Bonner et al., Science 237, 1987, p. 527, and Bonner et al., Neuron 1, 1988, p. 403. For the m2 and m4 receptors, the cells were co-transfected with DNA encoding a chimera between the Gq protein and the five carboxy-terminal amino acids of the Gi protein (the Gq-i5 construct is described by Conklin et al., Nature 363, 1993, p.274).
# as §1
# as §2, with “The plates were then placed in an incubator at 37° C. to equilibrate temperature and pH.” left out
# m5 receptor = target: T3, m5 receptor (Homo sapiens, UniProt P08912); experiment: R-SAT / NIH 3T3 cells transfected with m5 muscarinic receptor; format: cell-based; conditions: NIH3T3; m5; compound at 1.5 μM; maximum = response to 10 μM carbachol; read-out: Cellular response as a percentage of the maximum response of the cells
# T3 construct: expressed in transfected cells; host or cells: NIH 3T3 (ATCC CRL 1658)
# T3 sequence (P08912 1-532): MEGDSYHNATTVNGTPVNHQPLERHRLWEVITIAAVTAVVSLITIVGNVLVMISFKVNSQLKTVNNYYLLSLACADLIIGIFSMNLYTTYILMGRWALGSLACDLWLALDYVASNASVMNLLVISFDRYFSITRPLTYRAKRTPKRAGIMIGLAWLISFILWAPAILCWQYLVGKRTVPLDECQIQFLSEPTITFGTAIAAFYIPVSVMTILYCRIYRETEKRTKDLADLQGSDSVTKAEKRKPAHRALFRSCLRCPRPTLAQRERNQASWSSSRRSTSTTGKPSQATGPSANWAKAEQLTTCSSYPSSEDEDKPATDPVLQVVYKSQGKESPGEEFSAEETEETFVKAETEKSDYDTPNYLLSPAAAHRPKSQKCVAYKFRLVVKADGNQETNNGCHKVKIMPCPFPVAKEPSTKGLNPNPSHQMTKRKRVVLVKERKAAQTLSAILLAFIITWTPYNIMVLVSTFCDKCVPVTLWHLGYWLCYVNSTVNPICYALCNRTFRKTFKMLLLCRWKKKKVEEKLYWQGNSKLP
# Description: as §3, §4, §5, §1
# as §2, with “The plates were then placed in an incubator at 37° C. to equilibrate temperature and pH.” left out
# [1] = human, in vivo; cited from earlier work
Structure (SMILES),Emax at 1.5 µM (m1 receptor) [%],Emax at 1.5 µM (m3 receptor) [%],Emax at 1.5 µM (m5 receptor) [%],patients with elevated liver transaminases (hepatotoxicity) [1],patients with gastrointestinal side effects [1]
"CCCCC1CCN(CCCC(=O)c2cccc(C)c2C)CC1 [D, 4-n-Butyl-1-[4-(2,3-dimethylphenyl)-4-oxo-1-butyl]piperidine]",72,13,2,,
"CCCCC1CCN(CCCC(=O)c2ccccc2)CC1 [G, 4-n-Butyl-1-[4-phenyl-4-oxo-1-butyl]piperidine]",66,16,7,,
"CCCCC1CCN(CCCC(=O)c2ccc(C)cc2C)CC1 [E, 4-n-Butyl-1-[4-(2,4-dimethylphenyl)-4-oxo-1-butyl]piperidine]",42,9,-3,,
"CCCCC1CCN(CCCC(=O)c2ccccc2O)CC1 [C, 4-n-Butyl-1-[4-(2-hydroxyphenyl)-4-oxo-1-butyl]piperidine]",91,4,0,,
"CCCCC1CCN(CCCC(=O)c2ccccc2OCC)CC1 [B, 4-n-Butyl-1-[4-(2ethoxyphenyl)-4-oxo-1-butyl]piperidine]",76,7,-6,,
"Nc1c2c(nc3ccccc13)CCCC2 [Tacrine, 9-amino-1,2,3,4-tetrahydroacridine]",,,,about 30%,about a third
"CCCCC1CCN(CCCC(=O)c2ccccc2OC)CC1 [F, 4-n-Butyl-1-[4-(2-methoxyphenyl)-4-oxo1-butyl]piperidine]",65,9,5,,
